Measurements: paper PMC11396129, “Oxindole–benzothiazole hybrids as CDK2 inhibitors and anticancer agents: design, synthesis and biological evaluation” (BMC Chemistry, 2024)

Legend:
Type in all cases: cell-based, human
COLO 205 = experiment: NCI 60 panel growth inhibition (SRB), colon cancer; details: COLO 205, 10 μM
In short: (§1)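 Percent growth per concentration, normalised to Tz and control wells, yields three dose-response parameters including TGI (Ti = Tz). Where activity is not reached or is exceeded, the value is reported as greater or less than the tested extreme.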

HCC-2998 = experiment: NCI 60 panel growth inhibition (SRB), colon cancer; details: HCC-2998, 10 μM
In short: as §1

HCT-116 = experiment: NCI 60 panel growth inhibition (SRB), colon cancer; details: HCT-116, 10 μM
In short: as §1

HCT-15 = experiment: NCI 60 panel growth inhibition (SRB), colon cancer; details: HCT-15, 10 μM
In short: as §1

KM12 = experiment: NCI 60 panel growth inhibition (SRB), colon cancer; details: KM12, 10 μM
In short: as §1

SW-620 = experiment: NCI 60 panel growth inhibition (SRB), colon cancer; details: SW-620, 10 μM
In short: as §1

SF-268 = experiment: NCI 60 panel growth inhibition (SRB), CNS cancer; details: SF-268, 10 μM
In short: as §1

SF-295 = experiment: NCI 60 panel growth inhibition (SRB), CNS cancer; details: SF-295, 10 μM
In short: as §1

SF-539 = experiment: NCI 60 panel growth inhibition (SRB), CNS cancer; details: SF-539, 10 μM
In short: as §1

SNB-19 = experiment: NCI 60 panel growth inhibition (SRB), CNS cancer; details: SNB-19, 10 μM
In short: as §1

SNB-75 = experiment: NCI 60 panel growth inhibition (SRB), CNS cancer; details: SNB-75, 10 μM
In short: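 Selected compounds progressed from a single-dose mean-graph screen to five-concentration testing. Percentage growth, with negative values indicating cell kill below Tz, was computed per level, giving TGI among three parameters.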

LOX IMVI = experiment: NCI 60 panel growth inhibition (SRB), melanoma; details: 10 μM
In short: as §1

M14 = experiment: NCI 60 panel growth inhibition (SRB), melanoma; details: M14, 10 μM
In short: as §1

MALME-3M = experiment: NCI 60 panel growth inhibition (SRB), melanoma; details: 10 μM
In short: as §1

MDA-MB-435 = experiment: NCI 60 panel growth inhibition (SRB), melanoma; details: MDA-MB-435, 10 μM
In short: as §1

SK-MEL-28 = experiment: NCI 60 panel growth inhibition (SRB), melanoma; details: SK-MEL-28, 10 μM
In short: as §1

SK-MEL-5 = experiment: NCI 60 panel growth inhibition (SRB), melanoma; details: SK-MEL-5, 10 μM
In short: as §1

UACC-257 = experiment: NCI 60 panel growth inhibition (SRB), melanoma; details: UACC-257, 10 μM
In short: as §1

UACC-62 = experiment: NCI 60 panel growth inhibition (SRB), melanoma; details: UACC-62, 10 μM
In short: as §1

786-0 = experiment: NCI 60 panel growth inhibition (SRB), renal cancer; details: 786-0, 10 μM
In short: as §1

A498 = experiment: NCI 60 panel growth inhibition (SRB), renal cancer; details: A498, 10 μM
In short: as §1

ACHN = experiment: NCI 60 panel growth inhibition (SRB), renal cancer; details: 10 μM
In short: as §1

CAKI-1 = experiment: NCI 60 panel growth inhibition (SRB), renal cancer; details: CAKI-1, 10 μM
In short: as §1

RXF 393 = experiment: NCI 60 panel growth inhibition (SRB), renal cancer; details: RXF 393, 10 μM
In short: as §1

SN12C = experiment: NCI 60 panel growth inhibition (SRB), renal cancer; details: 10 μM
In short: as §1

TK-10 = experiment: NCI 60 panel growth inhibition (SRB), renal cancer; details: TK-10, 10 μM
In short: as §1

UO-31 = experiment: NCI 60 panel growth inhibition (SRB), renal cancer; details: UO-31, 10 μM
In short: as §1

BT-549 = experiment: NCI 60 panel growth inhibition (SRB), breast cancer; details: BT-549, 10 μM
In short: as §1

HS 578T = experiment: as above; details: 10 μM
In short: as §1

MCF7 = experiment: as above; details: MCF7, 10 μM
In short: as §1

MDA-MB-231/ATCC = experiment: as above; details: 10 μM
In short: as §1

MDA-MB-468 = experiment: as above; details: MDA-MB-468, 10 μM
In short: as §1

T-47D = experiment: as above; details: 10 μM
In short: as §1

[1] = system: NCI 60 cancer cell line panel; experiment: NCI 60 panel growth inhibition (SRB), whole panel; details: mean over NCI 60 panel, 10 μM
In short: as §1

For `COc1ccc2c(c1)C(=NNC(=O)COc1ccccc1-c1nc3ccccc3s1)C(=O)N2` [Compound 9c, 2-(2-(Benzo[d]thiazol-2-yl)phenoxy)-N′-(5-methoxy-2-oxoindolin-3-ylidene)acetohydrazide], the GI% (COLO 205) was “– (GI% < 5%)”, the GI% (HCC-2998) was “– (GI% < 5%)” and the GI% (HCT-116) was 18.17%. The GI% (HCT-15) was 40.05%, the GI% (KM12) was 15.67% and the GI% (SW-620) was “– (GI% < 5%)”. For the same compound, the GI% (SF-268) was 13.85%, the GI% (SF-295) was 20.67% and the GI% (SF-539) was 5.44%. For the same compound, the GI% (SNB-19) was 7.69%, the GI% (SNB-75) was “– (GI% < 5%)” and the GI% (LOX IMVI) was 9.06%. The GI% (M14) was 5.86%, the GI% (MALME-3M) was 13.58% and the GI% (MDA-MB-435) was 19.69%. The GI% (SK-MEL-28) was “– (GI% < 5%)”, the GI% (SK-MEL-5) was 44.97% and the GI% (UACC-257) was “– (GI% < 5%)”. For the same compound, the GI% (UACC-62) was 28.02%, the GI% (786-0) was 5.40% and the GI% (A498) was “– (GI% < 5%)”. The GI% (ACHN) was 9.04%, the GI% (CAKI-1) was 28.09% and the GI% (RXF 393) was 23.06%. The GI% (SN12C) was 12.43%, the GI% (TK-10) was “– (GI% < 5%)” and the GI% (UO-31) was 35.66%. For the same compound, the GI% (BT-549) was 18.71%, the GI% (HS 578T) was “– (GI% < 5%)” and the GI% (MCF7) was 18.66%. The GI% (MDA-MB-231/ATCC) was “– (GI% < 5%)”, the GI% (MDA-MB-468) was 29.51% and the GI% (T-47D) was 36.38%. For the same compound, the “Mean GI%” value [1] was 12.24%.
In the case of `COc1ccc2c(c1)C(=NNC(=O)COc1c(OC)cccc1-c1nc3ccccc3s1)C(=O)N2` [Compound 9i, 2-(2-(Benzo[d]thiazol-2-yl)-6-methoxyphenoxy)-N′-(5-methoxy-2-oxoindolin-3-ylidene)acetohydrazide], the GI% (COLO 205) is reported as “– (GI% < 5%)”, the GI% (HCC-2998) is reported as “– (GI% < 5%)” and the GI% (HCT-116) is reported as 17.55%. For the same compound, the GI% (HCT-15) was 9.87%, the GI% (KM12) was 8.46% and the GI% (SW-620) was “– (GI% < 5%)”. For the same compound, the GI% (SF-268) was “– (GI% < 5%)”, the GI% (SF-295) was 13.86% and the GI% (SF-539) was 6.47%. The GI% (SNB-19) was 11.58%, the GI% (SNB-75) was “– (GI% < 5%)” and the GI% (LOX IMVI) was “– (GI% < 5%)”. For the same compound, the GI% (M14) was 7.92%, the GI% (MALME-3M) was 12.81% and the GI% (MDA-MB-435) was “– (GI% < 5%)”. The GI% (SK-MEL-28) was “– (GI% < 5%)”, the GI% (SK-MEL-5) was 51.82% and the GI% (UACC-257) was “– (GI% < 5%)”. The GI% (UACC-62) was 25.33%, the GI% (786-0) was 5.62% and the GI% (A498) was “– (GI% < 5%)”. It also gave a GI% (ACHN) of 6.51%, a GI% (CAKI-1) of 24.98% and a GI% (RXF 393) of 15.41%. The GI% (SN12C) was 14.66%, the GI% (TK-10) was “– (GI% < 5%)” and the GI% (UO-31) was 30.29%. For the same compound, the GI% (BT-549) was 16.10%, the GI% (HS 578T) was “– (GI% < 5%)” and the GI% (MCF7) was 23.12%. It also gave a GI% (MDA-MB-231/ATCC) of 10.30%, a GI% (MDA-MB-468) of 30.66% and a GI% (T-47D) of 37.57%. For the same compound, the “Mean GI%” value [1] was 6.32%.
